Assay results taken from patent US11865108B2, “Nitrogen containing bicyclic compounds” (Wockhardt Limited, priority 2019, dated 2024).
In brackets after ≈: the same amount, converted by molar mass.

Experiments:
[1] = system: K. pneumoniae NCTC 13443; assay: MIC alone and in combination, K. pneumoniae NCTC 13443; type: cell-based; details: Klebsiella pneumoniae, NCTC13443, 18 h, beta lactamase NDM, ESBL, alone or in combination as labelled
Description: (§1) The biological activity of representative compounds according to the invention against various bacterial strains was investigated. In a typical study, overnight grown bacterial cultures were diluted appropriately and inoculated on the agar media containing doubling dilutions of the test compounds. Observations for growth or no growth was performed after 16-20 hours of incubation at 35±2° C. in the ambient air. The overall procedure was performed as per Clinical and Laboratory Standards Institute (CLSI) recommendations, (Clinical and Laboratory Standards Institute (CLSI), Performance Standards for Antimicrobial Susceptibility Testing, 20th Informational Supplement, M07-A9, Volume 32, No. 2, 2012). Molten Mueller Hinton Agar (MHA) (BD, USA) containing serial dilutions of each antibacterial agent were poured on to the plates and allowed to solidify. Appropriate suspensions from the freshly grown cultures were prepared in normal saline so that about 10^4 CFU/spot of the organism was delivered on to the drug containing agar plates using automated multipoint inoculator (Mast, UK). The plates were incubated in Biochemical oxygen demand (BOD) incubator at 37° C. for 18 hours and then examined for growth. […] The Table 2 depicts the antibacterial activity profile of compounds according to present invention against various multidrug resistant bacterial strains.
(§2) The antibacterial activity of compounds according to the invention was also investigated in combination with several antibacterial agents. For example, antibacterial activity of the representative compounds of Formula (I) (Example 1 and Example 2) in combination with Ceftazidime and Cefixime are summarized in Table 3.

[2] = system: K. pneumoniae S 465; assay: MIC alone and in combination, K. pneumoniae S 465; type: cell-based; details: Klebsiella pneumoniae, S465, 18 h, beta lactamase OXA-181, ESBL, alone or in combination as labelled
Description: as §1, §2

[3] = system: K. pneumoniae B 88; assay: MIC alone and in combination, K. pneumoniae B 88; type: cell-based; details: Klebsiella pneumoniae, B88, 18 h, beta lactamase NDM, ESBL, alone or in combination as labelled
Description: as §1, §2

[4] = system: K. pneumoniae B 77; assay: MIC alone and in combination, K. pneumoniae B 77; type: cell-based; details: Klebsiella pneumoniae, B77, 18 h, beta lactamase NDM, ESBL, alone or in combination as labelled
Description: as §1, §2

[5] = system: K. pneumoniae NCTC 13439; assay: MIC alone and in combination, K. pneumoniae NCTC 13439; type: cell-based; details: Klebsiella pneumoniae, NCTC13439, 18 h, beta lactamase VIM-1, alone or in combination as labelled
Description: as §1, §2

[6] = system: Multi Drug Resistant (MDR) Gram negative strains; assay: Antibacterial activity alone and in combination, summary of Table 3; type: cell-based, K. pneumoniae; details: for antibacterial activity when used alone: strains of Table 3; for antibacterial effect in combination: in combination with Ceftazidime and Cefixime, highly resistant bacterial strains
Description: as §1, §2

[7] = system: E. Coli M 36; assay: Agar dilution MIC, E. Coli M 36; type: cell-based; details: Escherichia coli
Description: as §1

[8] = system: K. pneumoniae H 521; assay: Agar dilution MIC, K. pneumoniae H 521; type: cell-based; details: Klebsiella pneumoniae, H521
Description: as §1

[9] = system: E. Coli 13351; assay: Agar dilution MIC, E. Coli 13351; type: cell-based; details: Escherichia coli
Description: as §1

[10] = system: E. Coli 13352; assay: Agar dilution MIC, E. Coli 13352; type: cell-based; details: Escherichia coli
Description: as §1

[11] = system: E. Coli S 18; assay: Agar dilution MIC, E. Coli S 18; type: cell-based; details: Escherichia coli
Description: as §1

[12] = system: K. pneumoniae H 523; assay: Agar dilution MIC, K. pneumoniae H 523; type: cell-based; details: Klebsiella pneumoniae, H523
Description: as §1

[13] = system: KP ATCC 700603; assay: Agar dilution MIC, KP ATCC 700603; type: cell-based, K. pneumoniae; details: Klebsiella pneumoniae, ATCC700603
Description: as §1

[14] = system: K. pneumoniae H 525; assay: Agar dilution MIC, K. pneumoniae H 525; type: cell-based; details: Klebsiella pneumoniae, H525
Description: as §1

[15] = system: E. Coli 13353; assay: Agar dilution MIC, E. Coli 13353; type: cell-based; details: Escherichia coli
Description: as §1

[16] = system: E. Coli 7 MP; assay: Agar dilution MIC, E. Coli 7 MP; type: cell-based; details: Escherichia coli
Description: as §1

[17] = system: E. Coli M 50; assay: Agar dilution MIC, E. Coli M 50; type: cell-based; details: Escherichia coli
Description: as §1

[18] = system: E. Coli M 138; assay: Agar dilution MIC, E. Coli M 138; type: cell-based; details: Escherichia coli
Description: as §1

[19] = system: K. pneumoniae H 522; assay: Agar dilution MIC, K. pneumoniae H 522; type: cell-based; details: Klebsiella pneumoniae, H522
Description: as §1

[20] = system: E. Coli M 49; assay: Agar dilution MIC, E. Coli M 49; type: cell-based; details: Escherichia coli
Description: as §1

Structure (SMILES)	MIC [1] [µg/mL]	MIC [2] [µg/mL]	MIC [3] [µg/mL]	MIC [4] [µg/mL]	MIC [5] [µg/mL]	MIC [7] [µg/mL]	MIC [8] [µg/mL]	MIC [9] [µg/mL]	MIC [10] [µg/mL]	MIC [11] [µg/mL]	MIC [12] [µg/mL]	MIC [13] [µg/mL]	MIC [14] [µg/mL]	MIC [15] [µg/mL]	MIC [16] [µg/mL]	MIC [17] [µg/mL]	MIC [18] [µg/mL]	MIC [19] [µg/mL]	MIC [20] [µg/mL]	other results
C=CC1=C(C(=O)O)N2C(=O)[C@@H](NC(=O)/C(=N\OCC(=O)O)c3csc(N)n3)[C@H]2SC1 [Cefixime, reference compound]	> 32	> 32	> 32	> 32	> 32	–	–	–	–	–	–	–	–	–	–	–	–	–	–	–
CC(C)(O/N=C(\C(=O)N[C@@H]1C(=O)N2C(C(=O)[O-])=C(C[n+]3ccccc3)CS[C@H]12)c1csc(N)n1)C(=O)O [Ceftazidime, reference compound]	> 32	> 32	> 32	> 32	> 32	–	–	–	–	–	–	–	–	–	–	–	–	–	–	antibacterial activity when used alone [6]: did not exhibit significant antibacterial activity
O=C(NOC[C@@H]1C[C@@H](CO)CN1)[C@@H]1CC[C@@H]2CN1C(=O)N2OS(=O)(=O)O [Example 5]	–	–	–	–	–	1 (≈ 2.54 µM)	1 (≈ 2.54 µM)	1 (≈ 2.54 µM)	2 (≈ 5.07 µM)	1 (≈ 2.54 µM)	1 (≈ 2.54 µM)	> 32	1 (≈ 2.54 µM)	1 (≈ 2.54 µM)	2 (≈ 5.07 µM)	1 (≈ 2.54 µM)	1 (≈ 2.54 µM)	1 (≈ 2.54 µM)	4 (≈ 10.1 µM)	–
O=C(NOC[C@@H]1C[C@H](CO)CN1)[C@@H]1CC[C@@H]2CN1C(=O)N2OS(=O)(=O)O [Example 6]	–	–	–	–	–	1 (≈ 2.54 µM)	2 (≈ 5.07 µM)	1 (≈ 2.54 µM)	2 (≈ 5.07 µM)	1 (≈ 2.54 µM)	2 (≈ 5.07 µM)	> 32	1 (≈ 2.54 µM)	1 (≈ 2.54 µM)	2 (≈ 5.07 µM)	1 (≈ 2.54 µM)	1 (≈ 2.54 µM)	2 (≈ 5.07 µM)	4 (≈ 10.1 µM)	–
O=C(NOC[C@H]1C[C@H](CO)CN1)[C@@H]1CC[C@@H]2CN1C(=O)N2OS(=O)(=O)O [Example 7]	–	–	–	–	–	1 (≈ 2.54 µM)	2 (≈ 5.07 µM)	1 (≈ 2.54 µM)	2 (≈ 5.07 µM)	1 (≈ 2.54 µM)	1 (≈ 2.54 µM)	> 32	1 (≈ 2.54 µM)	1 (≈ 2.54 µM)	2 (≈ 5.07 µM)	1 (≈ 2.54 µM)	1 (≈ 2.54 µM)	2 (≈ 5.07 µM)	4 (≈ 10.1 µM)	–
O=C(NOC[C@H]1C[C@@H](CO)CN1)[C@@H]1CC[C@@H]2CN1C(=O)N2OS(=O)(=O)O [Example 8]	–	–	–	–	–	1 (≈ 2.54 µM)	4 (≈ 10.1 µM)	2 (≈ 5.07 µM)	4 (≈ 10.1 µM)	2 (≈ 5.07 µM)	1 (≈ 2.54 µM)	> 32	1 (≈ 2.54 µM)	1 (≈ 2.54 µM)	4 (≈ 10.1 µM)	1 (≈ 2.54 µM)	1 (≈ 2.54 µM)	8 (≈ 20.3 µM)	4 (≈ 10.1 µM)	–
NC[C@H]1CN[C@H](CONC(=O)[C@@H]2CC[C@@H]3CN2C(=O)N3OS(=O)(=O)O)C1 [Example 9]	–	–	–	–	–	2 (≈ 5.08 µM)	4 (≈ 10.2 µM)	4 (≈ 10.2 µM)	4 (≈ 10.2 µM)	2 (≈ 5.08 µM)	2 (≈ 5.08 µM)	> 32	2 (≈ 5.08 µM)	2 (≈ 5.08 µM)	8 (≈ 20.3 µM)	2 (≈ 5.08 µM)	4 (≈ 10.2 µM)	4 (≈ 10.2 µM)	4 (≈ 10.2 µM)	–

Further lines, with some results ahead:

MIC [1] [µg/mL]	MIC [2] [µg/mL]	MIC [3] [µg/mL]	MIC [4] [µg/mL]	MIC [5] [µg/mL]	MIC [7] [µg/mL]	MIC [8] [µg/mL]	MIC [9] [µg/mL]	MIC [10] [µg/mL]	MIC [11] [µg/mL]	MIC [12] [µg/mL]	MIC [13] [µg/mL]	MIC [14] [µg/mL]	MIC [15] [µg/mL]	MIC [16] [µg/mL]	MIC [17] [µg/mL]	MIC [18] [µg/mL]	MIC [19] [µg/mL]	MIC [20] [µg/mL]	Structure (SMILES)	other results
> 32	> 32	> 32	> 32	> 32	0.5 (≈ 1.32 µM)	1 (≈ 2.64 µM)	1 (≈ 2.64 µM)	1 (≈ 2.64 µM)	1 (≈ 2.64 µM)	0.5 (≈ 1.32 µM)	> 32	0.5 (≈ 1.32 µM)	0.5 (≈ 1.32 µM)	1 (≈ 2.64 µM)	0.5 (≈ 1.32 µM)	0.5 (≈ 1.32 µM)	1 (≈ 2.64 µM)	4 (≈ 10.6 µM)	C[C@H]1CN[C@H](CONC(=O)[C@@H]2CC[C@@H]3CN2C(=O)N3OS(=O)(=O)O)C1 [Example 1, (2S,5R)—N-{[(2S,4R)-4-methylpyrrolidin-2-yl]methyloxy}-7-oxo-6-(sulfooxy)-1,6-diazabicyclo[3.2.1]octane-2-carboxamide]	melting point: 172 to 174 °C (dec.); antibacterial effect in combination [6]: unusual and unexpected synergistic antibacterial effect; antibacterial activity when used alone [6]: did not exhibit significant antibacterial activity
> 32	> 32	> 32	> 32	> 32	0.5 (≈ 1.32 µM)	2 (≈ 5.29 µM)	1 (≈ 2.64 µM)	1 (≈ 2.64 µM)	1 (≈ 2.64 µM)	1 (≈ 2.64 µM)	> 32	1 (≈ 2.64 µM)	0.5 (≈ 1.32 µM)	2 (≈ 5.29 µM)	1 (≈ 2.64 µM)	1 (≈ 2.64 µM)	1 (≈ 2.64 µM)	4 (≈ 10.6 µM)	C[C@@H]1CN[C@H](CONC(=O)[C@@H]2CC[C@@H]3CN2C(=O)N3OS(=O)(=O)O)C1 [Example 2, (2S,5R)—N-{[(2S,4S)-4-Methyl-pyrrolidin-2-yl]methyloxy}-7-oxo-6-(sulfooxy)-1,6-diazabicyclo[3.2.1]octane-2-carboxamide]	antibacterial effect in combination [6]: unusual and unexpected synergistic antibacterial effect; antibacterial activity when used alone [6]: did not exhibit significant antibacterial activity
–	–	–	–	–	0.5 (≈ 1.32 µM)	1 (≈ 2.64 µM)	1 (≈ 2.64 µM)	1 (≈ 2.64 µM)	1 (≈ 2.64 µM)	0.5 (≈ 1.32 µM)	> 32	0.5 (≈ 1.32 µM)	0.5 (≈ 1.32 µM)	2 (≈ 5.29 µM)	0.5 (≈ 1.32 µM)	0.5 (≈ 1.32 µM)	1 (≈ 2.64 µM)	4 (≈ 10.6 µM)	C[C@@H]1CN[C@@H](CONC(=O)[C@@H]2CC[C@@H]3CN2C(=O)N3OS(=O)(=O)O)C1 [Example 3, (2S,5R)—N-{[(2R,4S)-4-Methyl-pyrrolidin-2-yl]methyloxy}-7-oxo-6-(sulfooxy)-1,6-diazabicyclo[3.2.1]octane-2-carboxamide]	–
–	–	–	–	–	0.5 (≈ 1.32 µM)	2 (≈ 5.29 µM)	1 (≈ 2.64 µM)	2 (≈ 5.29 µM)	1 (≈ 2.64 µM)	2 (≈ 5.29 µM)	> 32	2 (≈ 5.29 µM)	1 (≈ 2.64 µM)	2 (≈ 5.29 µM)	1 (≈ 2.64 µM)	1 (≈ 2.64 µM)	2 (≈ 5.29 µM)	4 (≈ 10.6 µM)	C[C@H]1CN[C@@H](CONC(=O)[C@@H]2CC[C@@H]3CN2C(=O)N3OS(=O)(=O)O)C1 [Example 4, (2S,5R)—N-{[(2R,4R)-4-Methyl-pyrrolidin-2-yl]methyloxy}-7-oxo-6-(sulfooxy)-1,6-diazabicyclo[3.2.1]octane-2-carboxamide]	–
–	–	–	–	–	1 (≈ 2.52 µM)	2 (≈ 5.05 µM)	1 (≈ 2.52 µM)	2 (≈ 5.05 µM)	1 (≈ 2.52 µM)	2 (≈ 5.05 µM)	> 32	2 (≈ 5.05 µM)	1 (≈ 2.52 µM)	2 (≈ 5.05 µM)	1 (≈ 2.52 µM)	1 (≈ 2.52 µM)	2 (≈ 5.05 µM)	4 (≈ 10.1 µM)	O=C(NOC[C@@H]1C[C@@H](CF)CN1)[C@@H]1CC[C@@H]2CN1C(=O)N2OS(=O)(=O)O [Example 10]	–
